Experimental data as given in patent US20250051362A1, “SUBSTITUTED FUSED HETEROCYCLIC COMPOUND, AND PREPARATION METHOD THEREFOR AND USE THEREOF” (Shanghai Annova Biotechnology Co., Ltd., priority 2021, published 2025).

Assays:
ATR kinase = ATR kinase (Homo sapiens (Human), UniProt Q13535); assay: In vitro ATR kinase inhibition assay (Mobility Shift Assay, Caliper EZ Reader); type: biochemical; conditions: ATP concentration of Km; 4 h at 28° C.
Experimental: Experimental method: The inhibitory activity of the compounds on ATR kinase in vitro was determined by Mobility Shift Assay at an ATP concentration of Km using Caliper EZ Reader as a mobility shift assaying technology based on microfluidic chip technology.
Experimental procedure: (1) The compounds to be tested were dissolved in DMSO and serially diluted 4× for a total of 10 concentrations; (2) 0.06 μL of the compounds at different concentrations were pipetted into a 384-well plate using an Echo pipetting system; (3) a 2× kinase solution with a concentration of 10 nM ATR kinase was prepared from the ATR kinase and the 1× kinase buffer; and a 2× substrate solution with a concentration of 6 μM 5-FAM-AK-17 and 4 μM ATP was prepared from 5-FAM-AK-17, ATP and the 1× kinase buffer; (4) 10 μL of the 2× kinase solution was added into the 384-well plate and incubated for 10 min at room temperature; 10 μL of the 2× substrate solution was then added and incubated for 4 h at 28° C.; (5) 30 μL of the termination buffer was added to terminate the reaction, and then the 384-well plate was put into the Caliper EZ Reader to read the conversion rate data.

[1] = tested on: human colon cancer LoVo cells; assay: Cell proliferation inhibition assay (CellTiter-Glo); type: cell-based; conditions: LoVo cells, 96 hours incubation; for Emax: read-out: Max Inhibition
Description: Experimental method: A CellTiter-Glo cell viability assay kit was used to test the inhibitory effect of the compounds on the in vitro proliferation of human colon cancer LoVo cells.
Experimental materials: LoVo cells (ATCC, Cat. No. CCL-29); F-12K medium (Invitrogen, Cat. No. 21127-022); fetal bovine serum (Biological Industries, Cat. No. 04-002-1A); GlutaMAX (Gibco, Cat. No. 35050-061); 0.25% trypsin-EDTA (Invitrogen, Cat. No. 25200-072); CellTiter-Glo kit (Promega, Cat. No. G7558).
Experimental procedure: (1) F-12K medium, fetal bovine serum and GlutaMAX were formulated into a complete medium for culturing LoVo cells; (2) well-grown LoVo cells were taken, digested with trypsin and transferred to a centrifuge tube, and centrifuged; the supernatant was discarded, and cells were resuspended by adding a fresh medium and counted by a Vi-CELL XR cell counter; the density of the cell suspension was adjusted to 25,000 to 30,000 cells/mL, and the cell suspension was added at 100 μL/well in a 96-well cell culture plate, while a blank control group was set up with no cells added, and the cell culture plate was incubated in a carbon dioxide incubator overnight; (3) a DMSO solution of the compound to be tested was dispensed into the above 96-well cell culture plate using an HP D300 ultra-micro sampler, with 0.5 μL of the solution per well and 10 concentrations for each compound (3× dilution), while a DMSO control group with no compound added was set up, and the plate was continued to be incubated in a carbon dioxide incubator for 96 hours; (4) the cell culture plate was taken out and equilibrated to room temperature, with 100 μL of a CellTiter-Glo reagent added to each well, and then the plate was kept away from light, shaken for 10 minutes and then incubated for 10 minutes; (5) the cell culture plate was put into EnSpire for plate reading, and the luminescence value RLU was recorded.
Data processing: (1) The inhibition rate was calculated from the luminescence values: “RLUDMSO” is the luminescence value of the DMSO control group without compound, “RLUblank” is the luminescence value of the blank control group without cells, and “RLUcompound” is the luminescence value of the compound test group, and the inhibition rate=[1−(RLUcompound−RLUblank)/(RLUDMSO−RLUblank)]×100%; (2) with curve fitting using the Excel add-on XLFit, the IC50 value was calculated.

Sequence of ATR kinase (Q13535 whole entry): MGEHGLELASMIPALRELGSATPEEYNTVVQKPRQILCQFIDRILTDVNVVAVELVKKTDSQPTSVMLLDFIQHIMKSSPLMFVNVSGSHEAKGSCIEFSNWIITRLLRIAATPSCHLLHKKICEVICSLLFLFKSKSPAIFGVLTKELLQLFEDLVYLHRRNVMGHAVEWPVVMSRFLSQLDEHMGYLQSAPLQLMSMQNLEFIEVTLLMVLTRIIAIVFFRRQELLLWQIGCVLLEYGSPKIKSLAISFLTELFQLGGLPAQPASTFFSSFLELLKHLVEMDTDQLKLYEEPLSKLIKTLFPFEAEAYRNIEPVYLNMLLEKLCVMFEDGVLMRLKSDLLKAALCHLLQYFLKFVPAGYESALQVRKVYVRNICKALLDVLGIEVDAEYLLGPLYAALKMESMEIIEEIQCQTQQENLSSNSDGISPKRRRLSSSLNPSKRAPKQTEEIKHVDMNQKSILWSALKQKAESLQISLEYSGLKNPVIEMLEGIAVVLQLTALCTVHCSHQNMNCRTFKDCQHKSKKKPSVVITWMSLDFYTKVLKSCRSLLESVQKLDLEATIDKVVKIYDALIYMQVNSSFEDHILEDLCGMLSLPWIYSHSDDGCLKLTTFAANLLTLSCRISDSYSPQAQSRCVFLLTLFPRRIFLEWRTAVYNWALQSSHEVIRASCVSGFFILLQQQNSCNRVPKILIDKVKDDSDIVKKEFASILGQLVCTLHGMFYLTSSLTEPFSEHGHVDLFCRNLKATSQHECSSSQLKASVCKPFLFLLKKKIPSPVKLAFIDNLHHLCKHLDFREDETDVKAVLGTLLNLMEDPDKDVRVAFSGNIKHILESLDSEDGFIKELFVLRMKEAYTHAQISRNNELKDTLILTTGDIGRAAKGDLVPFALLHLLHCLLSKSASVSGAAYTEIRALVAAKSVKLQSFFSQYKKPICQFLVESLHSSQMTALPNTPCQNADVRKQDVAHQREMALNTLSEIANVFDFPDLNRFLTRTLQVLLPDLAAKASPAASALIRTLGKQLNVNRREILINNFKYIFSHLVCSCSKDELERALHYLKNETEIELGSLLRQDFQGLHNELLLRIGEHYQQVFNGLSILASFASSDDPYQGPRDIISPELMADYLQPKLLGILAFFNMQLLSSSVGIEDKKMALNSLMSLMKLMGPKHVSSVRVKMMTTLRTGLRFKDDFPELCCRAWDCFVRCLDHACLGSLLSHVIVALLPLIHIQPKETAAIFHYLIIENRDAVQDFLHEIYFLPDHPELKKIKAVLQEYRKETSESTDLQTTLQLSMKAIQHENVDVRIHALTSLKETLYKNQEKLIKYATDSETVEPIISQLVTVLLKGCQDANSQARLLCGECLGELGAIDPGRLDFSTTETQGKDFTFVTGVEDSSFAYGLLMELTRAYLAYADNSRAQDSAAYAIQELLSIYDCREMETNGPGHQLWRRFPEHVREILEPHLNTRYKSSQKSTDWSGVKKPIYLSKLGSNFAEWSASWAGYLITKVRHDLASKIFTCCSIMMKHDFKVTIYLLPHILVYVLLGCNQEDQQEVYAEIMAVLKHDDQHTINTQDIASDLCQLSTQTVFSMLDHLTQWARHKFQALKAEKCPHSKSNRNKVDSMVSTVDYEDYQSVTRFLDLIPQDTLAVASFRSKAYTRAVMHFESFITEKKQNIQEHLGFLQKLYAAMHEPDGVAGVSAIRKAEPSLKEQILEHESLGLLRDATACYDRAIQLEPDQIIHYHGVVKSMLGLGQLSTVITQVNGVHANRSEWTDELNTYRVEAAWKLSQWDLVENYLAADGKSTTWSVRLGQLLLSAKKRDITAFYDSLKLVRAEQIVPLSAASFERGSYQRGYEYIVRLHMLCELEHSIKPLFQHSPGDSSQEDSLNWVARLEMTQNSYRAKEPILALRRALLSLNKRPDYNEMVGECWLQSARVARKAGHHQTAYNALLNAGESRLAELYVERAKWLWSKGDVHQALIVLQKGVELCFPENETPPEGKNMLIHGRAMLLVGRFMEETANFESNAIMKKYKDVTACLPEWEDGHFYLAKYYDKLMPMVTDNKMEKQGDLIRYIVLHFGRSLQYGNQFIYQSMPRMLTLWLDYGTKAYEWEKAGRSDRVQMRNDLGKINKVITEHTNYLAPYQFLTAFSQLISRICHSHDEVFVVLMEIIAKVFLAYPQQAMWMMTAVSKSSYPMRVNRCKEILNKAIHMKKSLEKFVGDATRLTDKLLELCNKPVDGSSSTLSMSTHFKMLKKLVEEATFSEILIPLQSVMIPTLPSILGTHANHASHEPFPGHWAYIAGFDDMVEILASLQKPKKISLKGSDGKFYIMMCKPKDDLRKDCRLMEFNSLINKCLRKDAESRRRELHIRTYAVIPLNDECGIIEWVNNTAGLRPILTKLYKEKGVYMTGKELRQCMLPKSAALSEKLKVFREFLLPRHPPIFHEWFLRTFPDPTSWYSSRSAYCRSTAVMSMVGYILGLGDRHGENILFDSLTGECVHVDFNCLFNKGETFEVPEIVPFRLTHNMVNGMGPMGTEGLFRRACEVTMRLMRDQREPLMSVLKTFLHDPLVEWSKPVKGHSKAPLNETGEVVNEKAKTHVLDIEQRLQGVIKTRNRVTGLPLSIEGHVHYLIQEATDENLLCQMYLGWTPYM
Sequence of ATR kinase (Q8WXE1 whole entry partner): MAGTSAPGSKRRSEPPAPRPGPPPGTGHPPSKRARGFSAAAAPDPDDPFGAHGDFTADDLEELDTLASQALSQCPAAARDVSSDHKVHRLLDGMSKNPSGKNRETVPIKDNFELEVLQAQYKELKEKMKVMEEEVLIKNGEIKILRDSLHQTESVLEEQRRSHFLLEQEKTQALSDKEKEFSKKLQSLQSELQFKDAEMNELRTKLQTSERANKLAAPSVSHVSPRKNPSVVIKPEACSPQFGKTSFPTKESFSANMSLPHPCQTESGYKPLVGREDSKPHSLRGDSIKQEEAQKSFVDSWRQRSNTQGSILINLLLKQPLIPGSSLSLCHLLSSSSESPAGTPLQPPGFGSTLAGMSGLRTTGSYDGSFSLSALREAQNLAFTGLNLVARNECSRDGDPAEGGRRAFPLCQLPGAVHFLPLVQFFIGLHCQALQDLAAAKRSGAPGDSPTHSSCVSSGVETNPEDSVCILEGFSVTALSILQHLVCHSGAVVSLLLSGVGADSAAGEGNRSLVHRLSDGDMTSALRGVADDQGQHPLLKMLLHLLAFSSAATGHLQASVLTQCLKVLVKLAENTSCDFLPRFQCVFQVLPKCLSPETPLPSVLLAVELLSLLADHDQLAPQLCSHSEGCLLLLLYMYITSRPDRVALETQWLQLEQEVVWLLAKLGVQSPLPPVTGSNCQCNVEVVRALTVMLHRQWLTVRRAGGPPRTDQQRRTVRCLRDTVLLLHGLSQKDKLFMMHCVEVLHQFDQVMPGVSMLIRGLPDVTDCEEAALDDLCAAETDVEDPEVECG

| Structure (SMILES) | IC50 (ATR kinase) [nM] | IC50 [1] [nM] | Emax ([1]; Homo sapiens) [%] | IC50 ([1]; Homo sapiens) [nM] | Max Inhibition [1] [%] |
| --- | --- | --- | --- | --- | --- |
| C[C@@H]1COCCN1c1nc(-c2ccnc3[nH]ccc23)nc2c1cnn2S(C)(=O)=O [Compound 23, (R)-3-methyl-4-(1-(methylsulfonyl)-6-(1H-pyrrolo[2,3-b]pyridin-4-yl)-1H-pyrazolo[3,4-d]pyrimidin-4-yl)morpholine] | 15 | – | 92 | 740 | – |
| C[C@@H]1COCCN1c1nc(-c2nc3ccccc3[nH]2)nc2c1ccn2S(C)(=O)=O [Compound 27, (R)-4-(2-(1H-benzo[d]imidazol-2-yl)-7-(methylsulfonyl)-7H-pyrrolo[2,3-d]pyrimidin-4-yl)-3-methylmorpholine] | 1.6 | – | 94 | – | – |
| CNc1nc2ccccc2n1-c1nc(N2CCOC[C@H]2C)c2ccn(S(C)(=O)=O)c2n1 [Compound 28, (R)-N-methyl-1-(4-(3-methylmorpholinyl)-7-(methylsulfonyl)-7H-pyrrolo[2,3-d]pyrimidin-2-yl)-1H-benzo[d]imidazol-2-amine] | 4.1 | 100 | – | – | 92 |
| C[C@@H]1COCCN1c1nc(-c2cc(C#N)cc3[nH]ccc23)nc2c1ccn2S(C)(=O)=O [Compound 30, (R)-4-(4-(3-methylmorpholinyl)-7-(methylsulfonyl)-7H-pyrrolo[2,3-d]pyrimidin-2-yl)-1H-indol-6-carbonitrile] | 9.4 | 1060 | – | – | 93 |
| COc1cc(-c2nc(N3CCOC[C@H]3C)c3ccn(S(C)(=O)=O)c3n2)c2cc[nH]c2c1 [Compound 32, (R)-4-(2-(6-methoxy-1H-indol-4-yl)-7-(methylsulfonyl)-7H-pyrrolo[2,3-d]pyrimidin-4-yl)-3-methylmorpholine] | 5.3 | – | 95 | – | – |
| C[C@@H]1COCCN1c1nc(-c2ccnc3[nH]ccc23)nc2c1ccn2S(=O)(=O)N(C)C [Compound 34, (R)-N,N-dimethyl-4-(3-methylmorpholinyl)-2-(1H-pyrrolo[2,3-b]pyridin-4-yl)-7H-pyrrolo[2,3-d]pyrimidine-7-sulfamide] | 7.1 | 290 | – | – | 93 |

More lines, main results first:

| IC50 (ATR kinase) [nM] | IC50 [1] [nM] | Structure (SMILES) | Emax ([1]; Homo sapiens) [%] | IC50 ([1]; Homo sapiens) [nM] | Max Inhibition [1] [%] |
| --- | --- | --- | --- | --- | --- |
| 10 | – | C[C@@H]1COCCN1c1nc(-c2ccnc3[nH]ccc23)nc2c1ncn2S(C)(=O)=O [Compound 22, (R)-3-methyl-4-(9-(methylsulfonyl)-2-(1H-pyrrolo[2,3-b]pyridin-4-yl)-9H-purin-6-yl)morpholine] | 93 | – | – |
| 15 | – | C[C@@H]1COCCN1c1cc(-c2ccnc3[nH]ccc23)nc2c1ncn2S(C)(=O)=O [Compound 24, (R)-3-methyl-4-(3-(methylsulfonyl)-5-(1H-pyrrolo[2,3-b]pyridin-4-yl)-3H-imidazo[4,5-b]pyridin-7-yl)morpholine] | 92 | – | – |
| 9.4 | – | C[C@@H]1COCCN1c1nc(-c2cncc3[nH]ccc23)cc2c1ncn2S(C)(=O)=O [Compound 25, (R)-3-methyl-4-(1-(methylsulfonyl)-6-(1H-pyrrolo[2,3-c]pyridin-4-yl)-1H-imidazo[4,5-c]pyridin-4-yl)morpholine] | 89 | – | – |
| 8.6 | – | C[C@@H]1COCCN1c1nc(-c2ccnc3[nH]ccc23)cc2c1ccn2S(C)(=O)=O [Compound 26, (R)-3-methyl-4-(1-(methylsulfonyl)-6-(1H-pyrrolo[2,3-b]pyridin-4-yl)-1H-pyrrolo[3,2-c]pyridin-4-yl)morpholine] | 92 | – | – |
| 2.3 | – | Cc1cc(-c2nc(N3CCOC[C@H]3C)c3ccn(S(C)(=O)=O)c3n2)c2cc[nH]c2c1 [Compound 29, (R)-3-methyl-4-(2-(6-methyl-1H-indol-4-yl)-7-(methylsulfonyl)-7H-pyrrolo[2,3-d]pyrimidin-4-yl)morpholine] | 94 | – | – |
| 4.4 | – | C[C@@H]1COCCN1c1nc(-c2cc(Cl)cc3[nH]ccc23)nc2c1ccn2S(C)(=O)=O [Compound 31, (R)-4-(2-(6-chloro-1H-indol-4-yl)-7-(methylsulfonyl)-7H-pyrrolo[2,3-d]pyrimidin-4-yl)-3-methylmorpholine] | 93 | – | – |
| 5 | – | CCS(=O)(=O)n1ccc2c(N3CCOC[C@H]3C)nc(-c3ccnc4[nH]ccc34)nc21 [Compound 33, (R)-4-(7-(ethylsulfonyl)-2-(1H-pyrrolo[2,3-b]pyridin-4-yl)-7H-pyrrolo[2,3-d]pyrimidin-4-yl)-3-methylmorpholine] | 92 | – | – |
